Measured values taken from patent US9115093B2, “Substituted bicyclic dihydropyrimidinones and their use as inhibitors of neutrophil elastase activity” (Boehringer Ingelheim International GmbH, priority 2013, dated 2015).
Converted amounts (≈) assume the structure as drawn.

Legend:
[1] = Metabolic stability with human liver microsomes; type: in vitro ADME; conditions: pooled human liver microsomes, 37° C., 1 mg/ml protein, NADPH; for half-life at 1 nM: pH 7.6, read-out: t1/2 INVITRO
Method: Assay for the Determination of Metabolic Stability with Human Liver Microsomes
The metabolic degradation of the test compound is assayed at 37° C. with pooled human liver microsomes. The final incubation volume of […] per time point contains TRIS buffer pH 7.6 (0.1 M), magnesium chloride (5 mM), microsomal protein (1 mg/ml) and the test compound at a final concentration of […]. Following a short preincubation period at 37° C., the reactions are initiated by addition of beta-nicotinamide adenine dinucleotide phosphate, reduced form (NADPH, 1 mM) and terminated by transfering an aliquot into acetonitrile after different time points. Additionally, the NADPH-independent degradation is monitored in incubations without NADPH, terminated at the last time point. The rol remaining test compound after NADPH independent incubation is reflected by the parameter c(control) (metabolic stability). The quenched incubations are pelleted by centrifugation (10′000 g, 5 min) An aliquot of the supernatant is assayed by LC-MS/MS for the amount of parent compound.
The half-life (t1/2 INVITRO) is determined by the slope of the semilogarithmic plot of the concentration-time profile. The intrinsic clearance (CL_[…]) is calculated by considering the amount of protein in the incubation: CL_[…][μl/min/mg protein]=(ln 2/(half-life [min]*protein content [mg/ml]))*1′000.
The half-life (t1/2 INVITRO) values of selected compounds in the metabolic stability assay described above are listed in Table 15.

Aqueous solubility = type: physicochemical; conditions: McIlvaine buffer pH 6.8, 2.5% DMSO, 24 h shaking; for solubility at 24 h: McIlvaine buffer with 2.5% DMSO
Method: Assay for Determination of Aqueous Solubility
The aqueous solubility of a compound is determined by comparing the amount dissolved in aqueous buffer (containing 2.5% DMSO) to the amount dissolved in an acetonitrile/water (1/1) solution. Starting from a 10 mM DMSO stock solution, aliquots are diluted with acetonitrile/water (1/1) and Mcllvaine buffer pH 6.8, respectively. After 24 h of shaking, the solutions or suspensions are filtered and analyzed by LC-UV. The amount dissolved in buffer is compared to the amount dissolved in the acetonitrile/water (1/1) solution. Solubility is measured from 0.001 to 0.125 mg/ml at a DMSO concentration of 2.5%. If more than 90% of the compound is dissolved in buffer, the value is marked with “>”.

neutrophil elastase = target: T1, neutrophil elastase (Homo sapiens, UniProt P08246); assay: Human Neutrophil Elastase Assay; type: biochemical; design: purchased Calbiochem 324681; conditions: substrate MeOSuc-Ala-Ala-Pro-Val-AMC, pH 7.5, room temperature
T1 sequence (P08246 30-247 limits assumed): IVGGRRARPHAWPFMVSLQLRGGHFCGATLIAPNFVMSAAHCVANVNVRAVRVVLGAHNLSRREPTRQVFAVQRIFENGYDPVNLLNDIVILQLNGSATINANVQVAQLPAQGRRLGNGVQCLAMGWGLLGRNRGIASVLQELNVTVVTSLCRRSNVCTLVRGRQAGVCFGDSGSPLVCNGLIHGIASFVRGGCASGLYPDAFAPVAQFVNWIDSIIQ
How it was run: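 Readout: AMC fluorescence (ex 380, em 460 nm) after 60 min room-temperature reaction with 250 nM MeOSuc-AAPV-AMC, following 15 min compound–enzyme preincubation. Buffer: Tris/NaCl pH 7.5, 0.01% BSA.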

[2] = Metabolic stability with human hepatocytes; type: in vitro ADME; conditions: human hepatocyte suspension, 1 μM, scaled with well stirred model
Method: Assay for the Determination of Metabolic Stability with Human Hepatocytes
The metabolic degradation of the test compound is assayed in a human hepatocyte suspension. Human hepatocytes (typically cryopreserved) are incubated in an appropriate buffer system (e.g. Dulbecco's modified eagle medium plus 3.5 μg glucagon/500 mL, 2.5 mg insulin/500 mL and 3.75 mg/500 mL hydrocortison) containing 5% species serum. Following a (typically) […] preincubation in an incubator (37° C., 10% CO2), 5 μl of test compound solution (80 μM; from 2 mM stock solution in DMSO diluted 1:25 with medium) are added into 395 μl hepatocyte suspension (cell density in the range 0.25-5*10^6 cells/mL, typically 1*10^6 cells/mL; final concentration of test compound 1 μM, final DMSO concentration […]). The cells are incubated for six hours (incubator, orbital shaker) and samples (25 μl) are taken at 0, 0.5, 1, 2, 4 and 6 hours. Samples are transferred into acetonitrile and pelleted by centrifugation (5 min). The supernatant is transferred to a new 96-deepwell plate, evaporated under nitrogen and resuspended. The decline of parent compound is analyzed by LC-MS/MS.
The intrinsic clearance CL_[…] is calculated as follows: CL_[…]=Dose/AUC=(C0/CD)/(AUD+clast/k)*1′000/60 (C0: initial concentration in the incubation [μM], CD: cell density of vital cells [10^6 cells/mL], AUD: area under the data [μM*h], clast: concentration of last data point [μM], k: slope of the regression line for parent decline [h^−1])
The calculated in vitro hepatic intrinsic clearance can be scaled up to the intrinsic in vivo hepatic clearance and used to predict hepatic in vivo blood clearance (CL) by the use of a is liver model (well stirred model): CL_[…]_INVIVO [ml/min/kg]=(CL_[…] [μL/min/10^6 cells]* hepatocellularity[10^6 cells/g liver]*liver factor[g/kg bodyweight])/1′000 CL[ml/min/kg]=CL_[…]_INVIVO [ml/min/kg]*hepatic blood flow [ml/min/kg]/(CL_[…]_INVIVO [ml/min/kg]+hepatic blood flow [ml/min/kg]) Qh[%]=CL[ml/min/kg]/hepatic blood flow[ml/min/kg]) (Hepatocellularity, human: 120*10^6 cells/g liver; lver factor, human: 25.7 g/kg bodyweight; blood flow, human: 21 ml/(min*kg))
The predicted human hepatic in vivo blood clearance (CL) of selected compounds in the metabolic stability assay described above are listed in Table 16.

Row | Structure (SMILES) | half-life at 1 nM [1] | solubility at 24 h (Aqueous solubility) | IC50 (neutrophil elastase) | CL (predicted human hepatic in vivo blood clearance) [2] | t1/2 INVITRO [1] | Aqueous solubility (Aqueous solubility)
1 | N#Cc1ccc(C2C3=C(CCCC3=O)N(c3cccc(C(F)(F)F)c3)C(=O)N2C(=O)NCCO)cc1 (stereo not drawn) [Example 39.3] | > 2.17 h | 6 µg/mL (≈ 12 µM) | < 1 nM | – | – | –
2 | CS(=O)(=O)CCNC(=O)N1C(=O)N(c2cccc(C(F)(F)F)c2)C2=C(C(=O)CCC2)C1c1ccc(C#N)cc1 (stereo not drawn) [Example 39.19] | > 2.17 h | 9 µg/mL (≈ 16.1 µM) | < 1 nM | 0 mL/min/kg | – | –
3 | CC(C)NC(=O)N1C(=O)N(c2cccc(C(F)(F)F)c2)C2=C(C(=O)CCC2)[C@H]1c1ccc(C#N)cc1S(C)(=O)=O [Example 75.3] | – | – | < 1 nM | 0 mL/min/kg | >2.17 h | 9 µg/mL
4 | CS(=O)(=O)c1cc(C#N)ccc1[C@@H]1C2=C(CCCC2=O)N(c2cccc(C(F)(F)F)c2)C(=O)N1C(=O)NCC(F)F [Example 75.7] | – | – | < 1 nM | 0 mL/min/kg | >2.17 h | 5 µg/mL
